According to the NIST ThermoML archive (doi:10.1021/je0501843):
Values joined by “and” are separate entries in the source; they are usually repeats but may differ in a detail not shown here. Equal entries are not always repeated.

Assay: molar heat capacity at constant volume
Details: Fluid (supercritical or subcritical phases), Vacuum adiabatic calorimetry

FC(F)C(F)(F)F [pentafluoroethane]
Details | molar heat capacity at constant volume
350 K, Mass density=585.7 kg/m3 | 121.87 J/K/mol and 115.26 J/K/mol
350 K, Mass density=688.6 kg/m3 | 121.82 J/K/mol
350 K, Mass density=774 kg/m3 | 115.87 J/K/mol
350 K, Mass density=882.7 kg/m3 | 111.2 J/K/mol
350 K, Mass density=975 kg/m3 | 106.81 J/K/mol and 108.22 J/K/mol
350 K, Mass density=1076.5 kg/m3 | 105.51 J/K/mol and 105.75 J/K/mol
351 K, Mass density=403.4 kg/m3 | 114.03 J/K/mol
351 K, Mass density=503 kg/m3 | 115.42 J/K/mol
351 K, Mass density=585.7 kg/m3 | 123.23 J/K/mol and 114 J/K/mol
351 K, Mass density=688.6 kg/m3 | 119.91 J/K/mol
351 K, Mass density=773.9 kg/m3 | 114.06 J/K/mol
351 K, Mass density=882.7 kg/m3 | 110.25 J/K/mol
351 K, Mass density=974.9 kg/m3 | 106.01 J/K/mol and 107.36 J/K/mol
351 K, Mass density=1076.4 kg/m3 | 105.26 J/K/mol and 105.57 J/K/mol
352 K, Mass density=403.5 kg/m3 | 110.23 J/K/mol
352 K, Mass density=503 kg/m3 | 114.08 J/K/mol
352 K, Mass density=585.7 kg/m3 | 123.57 J/K/mol and 113.02 J/K/mol
352 K, Mass density=688.6 kg/m3 | 117.02 J/K/mol
352 K, Mass density=773.9 kg/m3 | 113.16 J/K/mol
352 K, Mass density=882.6 kg/m3 | 108.96 J/K/mol
352 K, Mass density=974.8 kg/m3 | 106.96 J/K/mol and 107.86 J/K/mol
352 K, Mass density=1076.3 kg/m3 | 105.75 J/K/mol and 105.23 J/K/mol
353 K, Mass density=403.5 kg/m3 | 109.29 J/K/mol
353 K, Mass density=503 kg/m3 | 114.32 J/K/mol
353 K, Mass density=585.7 kg/m3 | 120.99 J/K/mol and 113.07 J/K/mol
353 K, Mass density=688.5 kg/m3 | 116.8 J/K/mol
353 K, Mass density=773.8 kg/m3 | 113.56 J/K/mol
353 K, Mass density=882.5 kg/m3 | 110.9 J/K/mol
353 K, Mass density=974.7 kg/m3 | 107.31 J/K/mol and 108.33 J/K/mol
353 K, Mass density=1076.2 kg/m3 | 106.21 J/K/mol and 105.67 J/K/mol
354 K, Mass density=403.6 kg/m3 | 113.22 J/K/mol
354 K, Mass density=503 kg/m3 | 115.36 J/K/mol
354 K, Mass density=585.7 kg/m3 | 119.21 J/K/mol and 111.24 J/K/mol
354 K, Mass density=688.5 kg/m3 | 117.18 J/K/mol
354 K, Mass density=773.8 kg/m3 | 113.7 J/K/mol
354 K, Mass density=882.5 kg/m3 | 112.32 J/K/mol
354 K, Mass density=974.6 kg/m3 | 107.07 J/K/mol and 107.84 J/K/mol
354 K, Mass density=1076.1 kg/m3 | 105.5 J/K/mol and 106.64 J/K/mol
355 K, Mass density=403.6 kg/m3 | 113.06 J/K/mol
355 K, Mass density=503 kg/m3 | 114.26 J/K/mol
355 K, Mass density=585.7 kg/m3 | 121.17 J/K/mol and 110.25 J/K/mol
355 K, Mass density=688.5 kg/m3 | 116.52 J/K/mol
355 K, Mass density=773.7 kg/m3 | 113.14 J/K/mol
355 K, Mass density=882.4 kg/m3 | 110.04 J/K/mol
355 K, Mass density=974.6 kg/m3 | 106.63 J/K/mol and 107.29 J/K/mol
355 K, Mass density=1076 kg/m3 | 104.47 J/K/mol and 105.31 J/K/mol
356 K, Mass density=403.6 kg/m3 | 111.13 J/K/mol
356 K, Mass density=503 kg/m3 | 114 J/K/mol
356 K, Mass density=585.7 kg/m3 | 121.39 J/K/mol and 110.52 J/K/mol
356 K, Mass density=688.4 kg/m3 | 115.44 J/K/mol
356 K, Mass density=773.7 kg/m3 | 112.56 J/K/mol
356 K, Mass density=882.4 kg/m3 | 109.83 J/K/mol
356 K, Mass density=974.5 kg/m3 | 106.76 J/K/mol and 106.98 J/K/mol
356 K, Mass density=1075.9 kg/m3 | 105.59 J/K/mol and 105.04 J/K/mol
357 K, Mass density=403.6 kg/m3 | 111.14 J/K/mol
357 K, Mass density=503 kg/m3 | 114.3 J/K/mol
357 K, Mass density=585.6 kg/m3 | 111.96 J/K/mol
357 K, Mass density=585.7 kg/m3 | 119.54 J/K/mol
357 K, Mass density=688.4 kg/m3 | 115.72 J/K/mol
357 K, Mass density=773.7 kg/m3 | 114.08 J/K/mol
357 K, Mass density=882.3 kg/m3 | 111.13 J/K/mol
357 K, Mass density=974.4 kg/m3 | 107.52 J/K/mol and 108.27 J/K/mol
357 K, Mass density=1075.8 kg/m3 | 106.52 J/K/mol and 106.05 J/K/mol
358 K, Mass density=403.6 kg/m3 | 111.56 J/K/mol
358 K, Mass density=503 kg/m3 | 112.47 J/K/mol
358 K, Mass density=585.6 kg/m3 | 118.73 J/K/mol and 110.52 J/K/mol
358 K, Mass density=688.4 kg/m3 | 115.42 J/K/mol
358 K, Mass density=773.6 kg/m3 | 113.91 J/K/mol
358 K, Mass density=882.2 kg/m3 | 110.62 J/K/mol
358 K, Mass density=974.3 kg/m3 | 107.37 J/K/mol and 108.93 J/K/mol
358 K, Mass density=1075.7 kg/m3 | 105.71 J/K/mol and 106.8 J/K/mol
359 K, Mass density=403.6 kg/m3 | 112.17 J/K/mol
359 K, Mass density=503 kg/m3 | 112.71 J/K/mol
359 K, Mass density=585.6 kg/m3 | 120.73 J/K/mol and 110.01 J/K/mol
359 K, Mass density=688.3 kg/m3 | 114.6 J/K/mol
359 K, Mass density=773.6 kg/m3 | 112.66 J/K/mol
359 K, Mass density=882.2 kg/m3 | 109.41 J/K/mol
359 K, Mass density=974.3 kg/m3 | 106.84 J/K/mol and 107.68 J/K/mol
359 K, Mass density=1075.6 kg/m3 | 105.11 J/K/mol and 106.04 J/K/mol
360 K, Mass density=403.6 kg/m3 | 111.06 J/K/mol
360 K, Mass density=503 kg/m3 | 113.85 J/K/mol
360 K, Mass density=585.6 kg/m3 | 119.64 J/K/mol and 111.46 J/K/mol
360 K, Mass density=688.3 kg/m3 | 115.44 J/K/mol
360 K, Mass density=773.5 kg/m3 | 113.01 J/K/mol
360 K, Mass density=882.1 kg/m3 | 109.1 J/K/mol
360 K, Mass density=974.2 kg/m3 | 106.66 J/K/mol and 107.71 J/K/mol
360 K, Mass density=1075.5 kg/m3 | 106.19 J/K/mol and 105.87 J/K/mol
361 K, Mass density=403.6 kg/m3 | 110.42 J/K/mol
361 K, Mass density=503 kg/m3 | 112.26 J/K/mol
361 K, Mass density=585.6 kg/m3 | 116.41 J/K/mol and 111.57 J/K/mol
361 K, Mass density=688.3 kg/m3 | 115.6 J/K/mol
361 K, Mass density=773.5 kg/m3 | 113.86 J/K/mol
361 K, Mass density=882.1 kg/m3 | 110.89 J/K/mol
361 K, Mass density=974.1 kg/m3 | 107.11 J/K/mol and 108.37 J/K/mol
361 K, Mass density=1075.4 kg/m3 | 106.59 J/K/mol
362 K, Mass density=403.6 kg/m3 | 109.78 J/K/mol
362 K, Mass density=503 kg/m3 | 111.4 J/K/mol
362 K, Mass density=585.6 kg/m3 | 117.98 J/K/mol and 110.73 J/K/mol
362 K, Mass density=688.2 kg/m3 | 115.95 J/K/mol
362 K, Mass density=773.4 kg/m3 | 112.71 J/K/mol
362 K, Mass density=882 kg/m3 | 110.8 J/K/mol
362 K, Mass density=974 kg/m3 | 107.3 J/K/mol and 108.22 J/K/mol
362 K, Mass density=1075.3 kg/m3 | 106.09 J/K/mol
363 K, Mass density=403.6 kg/m3 | 109.94 J/K/mol
363 K, Mass density=503 kg/m3 | 114.16 J/K/mol
363 K, Mass density=585.5 kg/m3 | 120.74 J/K/mol and 110.36 J/K/mol
363 K, Mass density=688.2 kg/m3 | 116.44 J/K/mol
363 K, Mass density=773.4 kg/m3 | 110.53 J/K/mol
363 K, Mass density=881.9 kg/m3 | 110.61 J/K/mol
363 K, Mass density=974 kg/m3 | 106.41 J/K/mol and 108.02 J/K/mol
363 K, Mass density=1075.2 kg/m3 | 106.37 J/K/mol
364 K, Mass density=403.6 kg/m3 | 111.1 J/K/mol
364 K, Mass density=503 kg/m3 | 113.42 J/K/mol
364 K, Mass density=585.5 kg/m3 | 119.4 J/K/mol and 109.88 J/K/mol
364 K, Mass density=688.2 kg/m3 | 114.69 J/K/mol
364 K, Mass density=773.3 kg/m3 | 110.71 J/K/mol
364 K, Mass density=881.9 kg/m3 | 110.79 J/K/mol
364 K, Mass density=973.9 kg/m3 | 106.7 J/K/mol and 108.1 J/K/mol
364 K, Mass density=1075.1 kg/m3 | 106.31 J/K/mol
365 K, Mass density=403.6 kg/m3 | 108.67 J/K/mol
365 K, Mass density=503 kg/m3 | 111.49 J/K/mol
365 K, Mass density=585.5 kg/m3 | 117.96 J/K/mol and 110.02 J/K/mol
365 K, Mass density=688.1 kg/m3 | 115.26 J/K/mol
